“And” between values parts separate entries of the source, which are not always exact repeats. Equal values may be shown once. Read-outs that look alike come from different tables or passages of the source.
Legend:
[1] = biological target: BRD4 (Homo sapiens, UniProt O60885); test: Live cell kinetic HiBiT degradation assay, HiBiT-BRD4 HEK293 cells (parental, CRBN KO, VHL KO); assay type: cell-based; settings: for λmax BRD4 (degradation rate): HiBiT-BRD4 knock-in HEK293 cells
Procedure, shortened: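 Endogenous N-terminal HiBiT-BRD4 HEK293 cells stably expressing LgBiT (parental, CRBN KO, VHL KO) in CO2-independent medium with Endurazine, pre-equilibrated 3 h at 37 °C. Luminescence read every 7 min for 24 h after PROTAC addition (threefold series), normalized to pre-read and DMSO. Dmax = lowest reading; rate from one-phase decay; Dmax50 from Dmax-vs-concentration fit.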

[2] = biological target: T1, BRD3 (Homo sapiens, UniProt Q15059); test: Live cell kinetic HiBiT degradation assay, HiBiT-BRD3 HEK293 cells; assay type: cell-based; settings: for DC50: live cell kinetic degradation, read-out: Dmax 50 BRD3
T1 construct: HiBiT, is appended to the N-terminus of endogenous BRD2, BRD3, and BRD4; endogenous in cells
Procedure, shortened: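 HEK293 cells with CRISPR-inserted N-terminal HiBiT on endogenous BRD2 or BRD3, stably expressing LgBiT, equilibrated 3 h with Endurazine at 37 °C, then treated with threefold PROTAC dilution series. Luminescence read every 7 min for 24 h, normalized to pre-read and DMSO; Dmax as lowest signal, rate constant by one-phase exponential decay, Dmax50 from Dmax-concentration fit.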

[3] = test system: RKO WT cells; test: cells; assay type: cell-based, human; settings: for EC50: Homo sapiens
[4] = HiBiT-BRD4 CRISPR knock-in HEK293 cells, live cell kinetic degradation, 24 h, read-out: Dmax 50 BRD4
[5] = HiBiT-BRD3 CRISPR knock-in HEK293 cells, 24 h
[6] = HiBiT-BRD3 knock-in HEK293 cells
[7] = 72 h, 316 pM to 10 μM, 3 days, n = 3 (Figures 5 and 8C, Table S5), read-out: EC50 RKO WT
[8] = WT RKO, 316 pM to 10 μM, n = 3 (Table S4), read-out: EC50 RKO

T1 sequence (Q15059 whole entry): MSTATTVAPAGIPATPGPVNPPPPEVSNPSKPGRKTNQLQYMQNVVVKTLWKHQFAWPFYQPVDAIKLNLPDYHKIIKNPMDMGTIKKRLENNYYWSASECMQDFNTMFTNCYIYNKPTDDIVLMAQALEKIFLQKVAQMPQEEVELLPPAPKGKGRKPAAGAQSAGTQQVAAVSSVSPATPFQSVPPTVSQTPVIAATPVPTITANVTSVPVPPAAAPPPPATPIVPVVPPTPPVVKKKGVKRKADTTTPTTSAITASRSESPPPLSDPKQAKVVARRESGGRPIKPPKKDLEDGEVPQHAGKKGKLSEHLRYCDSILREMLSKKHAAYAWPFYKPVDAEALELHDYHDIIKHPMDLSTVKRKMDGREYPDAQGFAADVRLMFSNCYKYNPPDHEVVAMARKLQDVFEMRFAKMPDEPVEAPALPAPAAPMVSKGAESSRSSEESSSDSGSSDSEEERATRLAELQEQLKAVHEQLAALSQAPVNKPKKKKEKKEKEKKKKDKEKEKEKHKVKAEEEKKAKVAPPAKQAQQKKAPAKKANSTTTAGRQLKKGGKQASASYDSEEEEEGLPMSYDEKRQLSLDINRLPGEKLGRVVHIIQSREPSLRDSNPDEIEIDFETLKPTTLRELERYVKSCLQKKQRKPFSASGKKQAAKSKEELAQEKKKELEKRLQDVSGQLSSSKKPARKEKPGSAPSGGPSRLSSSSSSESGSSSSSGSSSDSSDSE

fold less Dmax 50 for BRD4 degradation in CRBN KO than in parent HiBiT-BRD4 cells ([1]; CRBN KO vs parental) [fold]	EC50 [1, 4]	λmax (HiBiT-BRD4: CRBN KO) ([1]; HiBiT-BRD4 HEK293 CRBN KO cells (Figure 9)) [h⁻¹]	EC50 ([1]; HiBiT-BRD4 HEK293 CRBN KO cells, 5 pM to 3 μM (Figure 9), read-out: Dmax 50 (HiBiT-BRD4: CRBN KO)) [nM]	λmax (HiBiT-BRD4: VHL KO) ([1]; HiBiT-BRD4 HEK293 VHL KO cells (Figure 9)) [h⁻¹]	EC50 ([1]; HiBiT-BRD4 HEK293 VHL KO cells, 5 pM to 3 μM (Figure 9), read-out: Dmax 50 (HiBiT-BRD4: VHL KO)) [nM]	λmax (HiBiT-BRD4: Parental) ([1]; HiBiT-BRD4 HEK293 parental cells (Figure 9)) [h⁻¹]	λmax BRD4 (degradation rate) [1] [h⁻¹]	fold less Dmax 50 for BRD4 degradation in VHL KO than in parent HiBiT-BRD4 cells ([1]; VHL KO vs parental) [fold]	DC50 [2, 5] [nM]	λmax BRD3 (degradation rate) [2, 6] [h⁻¹]	DC50 [2, 6] [nM]	EC50 [3, 7] [nM]	EC50 ([3]; 72 h, 500 pM to 10 μM, 3 days (Figure 10, Table S6), read-out: EC50 RKO WT) [nM]	EC50 ([3]; RKO WT, 316 pM to 10 μM, n = 6, combination: dBET6 and MZ1 each from 5 μM (Table S7), read-out: EC50 RKO) [nM]	EC50 [3, 8] [nM]	fold increase in degradation of BRD4 (Dmax 50) vs matched pair ([1]; 23 vs 1, 26 vs 23, 30 vs 2, HiBiT-BRD4 HEK293 cells) [fold]	Structure (SMILES)	cytotoxicity compared with 1:1 mixture of dBET6 and MZ1 (in words) ([3]; human, 3 days)
60	0.6 nM and 0.64 nM	1.0	38	1.2	23	2.3	2.68	40	< 0.43	3.31	0.085	111	73	49	97.5	–	Cc1ncsc1-c1ccc([C@H](C)NC(=O)[C@@H]2C[C@@H](O)CN2C(=O)[C@@H](NC(=O)COCC(C)(COCCOCCOCCNc2cc3c(cc2F)C(=O)N(C2CCC(=O)NC2=O)C3=O)COCCOCCOCCOC(=O)C[C@@H]2N=C(c3ccc(Cl)cc3)c3c(sc(C)c3C)-n3c(C)nnc32)C(C)(C)C)cc1 (mixture of isomers) [AB3067 (27), (17S)-11-((2-(2-(2-((2-(2,6-dioxopiperidin-3-yl)-6-fluoro-1,3-dioxoisoindolin-5-yl)amino)ethoxy)ethoxy)ethoxy)methyl)-17-((2S,4R)-4-hydroxy-2-(((S)-1-(4-(4-methylthiazol-5-yl)phenyl)ethyl)carbamoyl)pyrrolidine-1-carbonyl)-11,18,18-trimethyl-15-oxo-3,6,9,13-tetraoxa-16-azanonadecyl 2-((S)-4-(4-chlorophenyl)-2,3,9-trimethyl-6H-thieno[3,2-f][1,2,4]triazolo[4,3-a][1,4]diazepin-6-yl)acetate]	more cytoxic than the 1:1 mixture of dBET6 and MZ1
–	2.9 nM	–	–	–	–	–	1.51	–	1.2	2.14	–	–	–	–	214	–	Cc1ncsc1-c1ccc(CNC(=O)[C@@H]2C[C@@H](O)CN2C(=O)[C@@H](NC(=O)COCC(C)(COCCOCCOCCNc2cc3c(cc2F)C(=O)N(C2CCC(=O)NC2=O)C3=O)COCCOCCOC(=O)C[C@@H]2N=C(c3ccc(Cl)cc3)c3c(sc(C)c3C)-n3c(C)nnc32)C(C)(C)C)cc1 (mixture of isomers) [AB3065 (28), (14S)-8-((2-(2-(2-((2-(2,6-dioxopiperidin-3-yl)-6-fluoro-1,3-dioxoisoindolin-5-yl)amino)ethoxy)ethoxy)ethoxy)methyl)-14-((2S,4R)-4-hydroxy-2-((4-(4-methylthiazol-5-yl)benzyl)carbamoyl)pyrrolidine-1-carbonyl)-8,15,15-trimethyl-12-oxo-3,6,10-trioxa-13-azahexadecyl 2-((S)-4-(4-chlorophenyl)-2,3,9-trimethyl-6H-thieno[3,2-f][1,2,4]triazolo[4,3-a][1,4]diazepin-6-yl)acetate]	–
–	3 nM	–	–	–	–	–	1.98	–	1.5	2.54	–	260	–	–	165	3.7	Cc1ncsc1-c1ccc(CNC(=O)[C@@H]2C[C@@H](O)CN2C(=O)[C@@H](NC(=O)COCC(C)(COCCOCCOCCNc2cc3c(cc2F)C(=O)N(C2CCC(=O)NC2=O)C3=O)COCCOCCOCCOC(=O)C[C@@H]2N=C(c3ccc(Cl)cc3)c3c(sc(C)c3C)-n3c(C)nnc32)C(C)(C)C)cc1 (mixture of isomers) [AB3063 (26), (17S)-11-((2-(2-(2-((2-(2,6-dioxopiperidin-3-yl)-6-fluoro-1,3-dioxoisoindolin-5-yl)amino)ethoxy)ethoxy)ethoxy)methyl)-17-((2S,4R)-4-hydroxy-2-((4-(4-methylthiazol-5-yl)benzyl)carbamoyl)pyrrolidine-1-carbonyl)-11,18,18-trimethyl-15-oxo-3,6,9,13-tetraoxa-16-azanonadecyl 2-((S)-4-(4-chlorophenyl)-2,3,9-trimethyl-6H-thieno[3,2-f][1,2,4]triazolo[4,3-a][1,4]diazepin-6-yl)acetate]	–

— paper PMC11638965, “Leveraging Dual-Ligase Recruitment to Enhance Protein Degradation via a Heterotrivalent Proteolysis Targeting Chimera” (Journal of the American Chemical Society, 2024)
